# According to patent publication US20090088403A1, “A3 ADENOSINE RECEPTORS AS TARGETS FOR THE MODULATION OF CENTRAL SEROTONERGIC SIGNALING” (priority 2007, published 2009):
# Assays:
# Assay type in all cases: cell-based
# SERT = assay: [3H]5-HT transport assay in mouse brain synaptosomes; conditions: for effect on IB-MECA (10 nM) stimulated 5-HT uptake: inhibitor 10 min before IB-MECA, MRS1191 1 μM, DT-2 1.0 μM, H8 0.1 μM, SB203580 1.0 μM
# GABA transport activity = assay: [3H]GABA uptake in mouse striatal and midbrain synaptosomes; conditions: 10 min
# dopamine transporter = assay: [3H]DA uptake in mouse striatal and midbrain synaptosomes; conditions: 10 min
# [1] = midbrain synaptosomes, IB-MECA 10 nM 10 min, MRS1191 1 μM 10 min before IB-MECA, Michaelis-Menten fit, mean (n=3) ±SEM
molecule,measurement,setting,value
"CCOC(=O)C1=C(C)NC(c2ccccc2)=C(C(=O)OCc2ccccc2)C1C#Cc1ccccc1 (racemic) [MRS1191, 3-ethyl-5-benzyl-2-methyl-phenylethynyl-6-phenyl-1,4(±)dihydropyridine-3,5-dicarboxylate]",effect on IB-MECA (10 nM) stimulated 5-HT uptake,SERT; midbrain synaptosomes,prevented the stimulatory actions of IB-MECA on 5-HT uptake
same,effect alone on basal 5-HT transport,"SERT; synaptosomes, 0.01-100 μM, data not shown",did not influence basal 5-HT transport
N6-(3-iodobenzyl)-N-methyl-5′carbamoyladenosine [IB-MECA],effect on GABA uptake,GABA transport activity,no stimulation
same,effect on DA uptake,dopamine transporter,no stimulation
same,increase in 5-HT transport,"SERT; midbrain and hippocampal synaptosomes of A3AR+/+ mice, 10 nM, 10 min",40-50%
same,stimulation of SERT activity in A3AR−/− mice,"SERT; midbrain and hippocampal synaptosomes of A3AR−/− mice, 10 nM, 10 min",failed to stimulate SERT activity
same,effect on SERT Vmax for 5-HT,"SERT; midbrain synaptosomes, 10 nM",significantly increased the SERT Vmax for 5-HT
same,5-HT transport at peak stimulation,"SERT; midbrain synaptosomes, 10 nM, 10 min pretreatment",130-150 % of control levels
same,time at which stimulation of 5-HT uptake reached a maximum,"SERT; midbrain synaptosomes, 10 nM, post-treatment",10 to 20 min
same,concentration at which stimulation of 5-HT transport peaked,"SERT; midbrain synaptosomes, 10 min pretreatment",10 nM
same,Km,SERT; [1],0.8 µM
same,Vmax,SERT; [1],2544+/−281 fmol/mg protein/min
same,effect on 5-HT uptake at high concentration,"SERT; midbrain synaptosomes, exceeding 100 μM, data not shown",induced a decrease in 5-HT uptake
same,SERT activity in striatal synaptosomes,"SERT; striatal synaptosomes, 10 min",IB-MECA-insensitive SERT activity
same,concentration window for stimulation of 5-HT transport,"SERT; synaptosomes, for 20 min",10 to 30 nM
"CNCCNS(=O)(=O)c1cccc2cnccc12 [H8, N-[2-(methylamino)ethy]-5-isoquinoline-sulfonamide]",effect on IB-MECA (10 nM) stimulated 5-HT uptake,SERT; midbrain synaptosomes,blocked IB-MECA regulation of SERT
"C[C@H](Cc1ccccc1)Nc1ncnc2c1ncn2[C@@H]1O[C@H](CO)[C@@H](O)[C@H]1O [R-PIA, (R)—N^6-phenylisopropyladenosine]",impact on 5-HT transport,"SERT; midbrain synaptosomes, 1~1000 nM, 10 min at 37° C.",No impact
"CCNC(=O)C1OC(n2cnc3c(N)ncnc32)C(O)C1O (stereo not shown) [NECA, 5′-N-ethyl-carboxamidoadenosine]",effect on SERT activity,"SERT; midbrain synaptosomes, 10 min at 37° C.",fails to stimulate SERT activity
same,effect on 5-HT transport at high concentration,"SERT; midbrain synaptosomes, concentrations above 1 μM",inhibited 5-HT transport
